Drawing on patent publication US12612403B2, “Nitrogen-containing heterocyclic derivative inhibitor, and preparation method therefor and use thereof” (SHANGHAI HANSOH BIOMEDICAL CO., LTD., priority 2024, dated 2026), this text covers IC50, half-life and microsomal CLint for three compounds.

Data set [1] relates to PCSK9 secreted by HepG2 cells. In words: Effect on the concentration of PCSK9 secreted by HepG2 cells (ELISA). The following applies: Homo sapiens, 48 hours, PCSK9 in culture medium by ELISA. It counts as cell-based. An outline of the steps: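 HepG2 cells treated with compound for 48 h at 37° C., 5% CO2. Secreted PCSK9 in medium quantified by sandwich ELISA (HRP detection, OD 450 nm) against a 0–10 ng/mL standard curve. Inhibition relative to control; IC50 fitted from concentration–inhibition data.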
In general terms: ELISA stands for enzyme-linked immunosorbent assay.

A short description of data set [2]: In vitro metabolic stability in human liver microsomes. It counts as in vitro ADME. The conditions noted are these: pH 7.4. As to the method:
1. Experimental objective: The purpose of this experiment was to evaluate the metabolic stability of the compounds in phase I and partially phase II in mouse, rat and human liver microsomes, respectively.
2.1 Drug preparation: 10 mM stock solution of the compound of the present disclosure was prepared in DMSO (or other suitable solution) and stored in a −20° C. refrigerator for later use. The compound of the present disclosure was made in house.
2.2 Experimental steps • 1) Preparation of buffer: 4.01 mL of 1 M K2HPO4·3H2O (AR grade) and 0.99 mL of 1 M KH2PO4 (AR grade) were dissolved in ultrapure water and the volume was adjusted to 50 mL to prepare a phosphate buffer with a final concentration of 100 mM. • 2) Preparation of compound working solution: Preparation of compound working solution: 2 μL of the compound stock solution was added to 998 μL of phosphate buffer to a final concentration of 20 μM. According to the properties of the compound, the preparation proportions could be adjusted appropriately to adjust the final concentration. • 3) Preparation of liver microsome working solution: 156.3 μL of 20 mg/mL microsomes were diluted to 5 mL with 100 mM phosphate buffer, and the mixture was mixed well to reach a final concentration of 0.625 mg/mL. • 4) Preparation of NADPH and UDPGA: 33.3 mg of NADPH and 25.8 mg of UDPGA were weighed and added to 2 mL of 100 mM phosphate buffer to reach a final concentration of 20 mM. • 5) Preparation of pore-forming agent (Alamethicin): 1 mg of Alamethicin was weighed and added to 200 μL of methanol to prepare a 5 mg/mL solution. 10 μL of the solution was taken and added to 990 μL phosphate buffer (pH 7.4) to reach a final concentration of 50 μg/mL. • 6) Preparation of reaction stop solution: The internal standard was diluted with acetonitrile (or other suitable solution) to use as a stop solution and stored in a 2° C.-8° C. refrigerator. • 7) Incubation process: 400 μL of the prepared liver microsomes, 25 μL of the compound working solution (20 μM) and 25 μL of Alamethicin (50 μg/mL) were successively added to the 96-well plate, and the mixture was pre-incubated at 37° C. for 10 min. Then, 50 μL of prepared NADPH/UDPGA was added to start the reaction, and the mixture was incubated at 37° C. The total volume of the reaction system was 500 μL. The final contents of each component were as follows:
50 μL of samples were taken at 0, 5, 15, 30, 60 and 120 min, respectively, 200 μL of a cold stop solution containing the internal standard was added to stop the sample reaction, the mixture was centrifuged at 3500 rpm for 10 min, and the supernatant was taken and analyzed by LC-MS/MS.
Instruments: Shimadzu LC-20 AD; Chromatographic column: Phenomenex Gamin® C18 (50*4.6 mm, 5 μm particle size); mobile phase: A: 0.1% aqueous formic acid, B: acetonitrile; Elution gradient: 0.2-1.6 min, […], 3.0-3.1 min, 95% A to 5% A; Flow rate: 1.0 ml/min; Run time: 4.0 min; Injection volume: 5 μL.
Instruments: AP14000 liquid chromatography mass spectrometer, AB Sciex; Ion source: electrospray ionization source (ESI); Drying gas: N2, temperature 500° C.; Electrospray voltage: 5000 V; Detection mode: positive ion detection; Scanning mode: Reaction Monitoring (MRM) mode; Scanning time: 0.8401 s.
3. Data processing: The raw data were calculated according to the following formula: […]
The in vitro liver microsome intrinsic clearance rate (CLint) and liver intrinsic clearance rate (CLint,liver) were calculated by Ke.

By IC50 is commonly meant the concentration needed to halve the response being measured. Lower therefore signals greater potency. What is called half-life is the time in which the quantity being followed falls by half. The microsomal CLint is the rate of metabolic loss divided by the concentration. A higher microsomal CLint goes with rapid turnover. `O=c1nc(O)ccn1-c1ccc(N[C@H]2CC[C@H](Nc3nc4cc(C(F)(F)F)ccn4n3)C2)nc1` [Example 78, 4-hydroxy-1-(6-(((1S,3S)-3-((7-(trifluoromethyl)-[1,2,4]triazolo[1,5-a]pyridin-2-yl)amino)cyclopentyl)amino)pyridin-3-yl)pyrimidin-2(1H)-one] displayed an IC50 in data set [1] of 33.1 µM. Besides, in data set [2], the half-life at 1 µM was 13.2 h and the microsomal CLint at 1 µM came to 1.75 µL/min/mg.

In data set [1], `O=C1c2ncccc2CN1c1cnc(N[C@H]2CC[C@H](Nc3nc4cc(OC(F)F)ccn4n3)C2)c(F)c1` [Example 151] registered an IC50 of 12.7 µM. In data set [2], this compound showed a half-life at 1 µM of 11.8 h and a microsomal CLint at 1 µM of 1.9 µL/min/mg.

The compound `O=c1nc(O)ccn1-c1cnc(N[C@H]2CC[C@H](Nc3nc4cc(C(F)(F)F)ccn4n3)C2)c(F)c1` [Example 183] registered an IC50 in data set [1] of 4.8 µM. In data set [2], the half-life at 1 µM is 23 h and the microsomal CLint at 1 µM worked out at 1 µL/min/mg.
